Test [1] deals with T1, CFTR-mediated chloride transport in human intestinal epithelial enteroid cells (Homo sapiens, UniProt P13569). Briefly: Membrane potential dye, Enteroid Assay B. Type of test: cell-based. As to conditions: Enteroid Assay B; for EC50: read-out: Ent. B EC50. Here is the method: Base medium (ADF+++) consisted of Advanced DMEM/Ham's F12, 2 mM Glutamax, 10 mM HEPES, […] penicillin/streptomycin.
Bath 1 Buffer consisted of 1 mM MgCl2, 160 mM NaCl, 4.5 mM KCl, 10 mM HEPES, 10 mM Glucose, 2 mM CaCl2.
Chloride Free Buffer consisted of 1 mM Magnesium Gluconate, 2 mM Calcium Gluconate, 4.5 mM Potassium Gluconate, 160 mM Sodium Gluconate, 10 mM HEPES, 10 mM Glucose.
Bath1 Dye Solution consisted of Bath 1 Buffer, 0.04% Pluronic F127, 20 μM Methyl Oxonol, 30 μM CaCCinh-A01, 30 μM Chicago Sky Blue.
Chloride Free Dye Solution consisted of Chloride Free Buffer, 0.04% Pluronic F127, 20 μM Methyl Oxonol, 30 μM CaCCinh-A01, 30 μM Chicago Sky Blue.
3. Enteroid Cell Harvesting and Seeding
Cells were recovered in cell recovery solution, collected by centrifugation at 650 rpm for 5 min at 4° C., resuspended in TryPLE and incubated for 5 min at 37° C. Cells were then collected by centrifugation at 650 rpm for 5 min at 4° C. and resuspended in IEMM containing 10 μM ROCK inhibitor (RI).
5. Membrane Potential Dye, Enteroid Assay B
Briefly, cells were washed 5 times in Bath 1 Buffer. Bath 1 Dye Solution was added and the cells were incubated for 25 min at room temperature. Following dye incubation, cells were washed 3 times in Chloride Free Dye Solution. Chloride transport was initiated by addition of Chloride Free Dye Stimulation Solution and the fluorescence signal was read for 15 min.

The target of test [2] is T1, CFTR-mediated chloride transport in human intestinal epithelial enteroid cells. The test is described as follows: Membrane potential dye, Enteroid Assay A. Type of test: cell-based. The following applies: for EC50: read-out: Ent. A EC50. Put shortly: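 Membrane potential dye (20 μM methyl oxonol, with 30 μM CaCCinh-A01 and 30 μM Chicago Sky Blue) loaded 25 min at room temperature into ROCK-inhibitor-seeded human enteroid cells. Chloride-free stimulation buffer triggered transport, followed by 15 min fluorescence. % Activity relative to 3 μM/3 μM/300 nM triple-combination control.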

[3] abbreviates: percentage of chloride transport of triple combination control (3 μM N-[(6-amino-2-pyridyl)sulfonyl]-6-(3-fluoro-5-isobutoxy-phenyl)-2-[(4S)-2,2,4-trimethylpyrrolidin-1-yl]pyridine-3-carboxamide based).

The results in this text go back to patent US20240018161A1, “MODULATORS OF CYSTIC FIBROSIS TRANSMEMBRANE CONDUCTANCE REGULATOR” (VERTEX PHARMACEUTICALS INCORPORATED, priority 2020, published 2024).

What is called EC50 is the concentration needed to bring the measured effect to its halfway point.

Some results are limits rather than exact numbers.

T1 sequence (P13569 with tags, fused parts or gaps DEL508-508): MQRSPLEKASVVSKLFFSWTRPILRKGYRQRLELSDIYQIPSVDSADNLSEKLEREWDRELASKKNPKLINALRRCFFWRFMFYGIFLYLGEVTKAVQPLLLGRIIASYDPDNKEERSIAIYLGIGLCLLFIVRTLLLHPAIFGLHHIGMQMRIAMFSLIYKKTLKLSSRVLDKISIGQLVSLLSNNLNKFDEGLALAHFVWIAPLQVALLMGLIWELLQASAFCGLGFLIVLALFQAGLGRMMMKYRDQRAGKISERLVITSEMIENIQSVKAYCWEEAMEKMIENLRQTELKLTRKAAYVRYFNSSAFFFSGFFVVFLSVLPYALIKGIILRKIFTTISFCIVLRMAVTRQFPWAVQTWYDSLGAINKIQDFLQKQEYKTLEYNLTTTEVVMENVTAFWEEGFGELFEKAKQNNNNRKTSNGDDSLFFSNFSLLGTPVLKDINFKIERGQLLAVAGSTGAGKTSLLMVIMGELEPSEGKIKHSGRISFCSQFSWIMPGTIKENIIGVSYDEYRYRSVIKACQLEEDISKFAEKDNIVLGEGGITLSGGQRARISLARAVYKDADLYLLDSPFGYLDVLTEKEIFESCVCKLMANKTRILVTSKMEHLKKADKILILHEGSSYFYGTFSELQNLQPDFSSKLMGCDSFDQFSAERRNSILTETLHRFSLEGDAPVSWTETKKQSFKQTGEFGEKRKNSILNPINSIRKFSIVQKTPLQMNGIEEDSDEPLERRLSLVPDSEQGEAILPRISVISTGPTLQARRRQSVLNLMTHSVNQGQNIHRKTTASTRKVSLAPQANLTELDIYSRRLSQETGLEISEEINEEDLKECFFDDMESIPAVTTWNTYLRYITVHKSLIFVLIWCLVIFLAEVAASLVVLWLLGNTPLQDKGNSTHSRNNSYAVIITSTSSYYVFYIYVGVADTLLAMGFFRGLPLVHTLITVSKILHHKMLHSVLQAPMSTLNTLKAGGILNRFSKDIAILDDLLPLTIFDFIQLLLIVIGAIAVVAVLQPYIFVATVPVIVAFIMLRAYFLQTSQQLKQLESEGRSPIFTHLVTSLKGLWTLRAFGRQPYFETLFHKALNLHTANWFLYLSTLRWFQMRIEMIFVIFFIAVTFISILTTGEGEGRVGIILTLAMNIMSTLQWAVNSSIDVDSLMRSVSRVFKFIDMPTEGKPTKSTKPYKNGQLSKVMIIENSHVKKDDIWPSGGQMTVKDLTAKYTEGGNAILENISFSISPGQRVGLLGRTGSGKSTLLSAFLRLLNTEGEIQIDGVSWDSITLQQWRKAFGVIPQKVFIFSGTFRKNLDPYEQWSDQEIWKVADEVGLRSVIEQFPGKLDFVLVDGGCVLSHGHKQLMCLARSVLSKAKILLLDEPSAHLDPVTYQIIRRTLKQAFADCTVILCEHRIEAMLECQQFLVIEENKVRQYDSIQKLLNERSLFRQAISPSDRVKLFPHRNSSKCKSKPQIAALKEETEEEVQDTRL

Consider `Cc1cccc(C)c1-c1cc2nc(n1)NS(=O)(=O)c1cccc(c1)C(=O)N1C[C@@H](CN(C(=O)OC(C)(C)C)C[C@@H]1CCO)O2` (single isomer, unassigned) [Compound 137, tert-butyl 12-(2,6-dimethylphenyl)-20-(2-hydroxyethyl)-2,8,8-trioxo-15-oxa-8λ^6-thia-1,9,11,18,22-pentaazatetracyclo[14.4.1.13,7.110,14]tricosa-3(23),4,6,10(22),11,13-hexaene-18-carboxylate], for which, in test [1], the “Ent. B Max Activity (%)” value was “+++ (+++ is >600%)” and the EC50 lay in the range of 1000 to 3000 nM. In the case of `Cc1cccc(C)c1-c1cc2nc(n1)NS(=O)(=O)c1cccc(c1)C(=O)N1C[C@@H](CCC[C@@H]1CC(C)C)O2` (single isomer, unassigned) [Compound 179], the “Ent. B Max Activity (%)” value in test [1] is given as “+ (+ is <30%)”.

Consider `Cc1cccc(C)c1-c1cc2nc(n1)NS(=O)(=O)c1cccc(c1)C(=O)N1C[C@@H](CCC[C@@H]1CC(C)C)O2` (single isomer, unassigned) [Compound 180], for which, in test [1], the “Ent. B Max Activity (%)” value is recorded as “++ (++ is 30-60%)” and the EC50 is less than 1000 nM. With `Cc1cccc(C)c1-c1cc2nc(n1)NS(=O)(=O)c1cccc(c1)C(=O)N1Cc3cc(C(C)(C)C)ccc3C(C1)O2` (single isomer, unassigned) [Compound 183, 20-tert-butyl-12-(2,6-dimethylphenyl)-15-oxa-8λ^6-thia-1,9,11,25-tetraazapentacyclo[14.7.1.13,7.110,14.017,22]hexacosa-3,5,7(26),10,12,14(25),17,19,21-nonaene-2,8,8-trione], in test [2] (Enteroid Assay A), the “Ent. A Max Activity (%)” value is reported as “+++ (+++ is >600%)” and the EC50 is less than 1000 nM. Also, in test [1], the “Ent. B Max Activity (%)” value is “+++ (+++ is >600%)” and the EC50 is less than 1000 nM. For `Cc1cccc(C)c1-c1cc2nc(n1)NS(=O)(=O)c1cccc(c1)C(=O)N1C[C@H](O2)c2ccccc2[C@@H]1CC(C)C` (single isomer, unassigned) [Compound 190, 12-(2,6-Dimethylphenyl)-23-(2-methylpropyl)-15-oxa-8λ^6-thia-1,9,11,25-tetraazapentacyclo[14.7.1.13,7.110,14.017,22]hexacosa-3(26),4,6,10(25),11,13,17,19,21-nonaene-2,8,8-trione], in test [1], the “Ent. B Max Activity (%)” value was “++ (++ is 30-60%)” and the EC50 is less than 1000 nM. For `Cc1cccc(C)c1-c1cc2nc(n1)NS(=O)(=O)c1cccc(c1)C(=O)N1C[C@H](O2)c2ccccc2[C@@H]1CC(C)C` (single isomer, unassigned) [Compound 191, 12-(2,6-Dimethylphenyl)-23-(2-methylpropyl)-15-oxa-8λ^6-thia-1,9,11,25-tetraazapentacyclo[14.7.1.13,7.110,14.017,22]hexacosa-3(26),4,6,10(25),11,13,17,19,21-nonaene-2,8,8-trione], in that order: “++ (++ is 30-60%)” and less than 1000 nM. For `Cc1cccc(C)c1-c1cc2nc(n1)NS(=O)(=O)c1cccc(c1)C(=O)N1Cc3cc(C(C)(C)C)ccc3C(CO2)C1C` (single isomer, unassigned) [Compound 218, 21-tert-Butyl-12-(2,6-dimethylphenyl)-25-methyl-15-oxa-8λ^6-thia-1,9,11,26-tetraazapentacyclo[15.7.1.13,7.110,14.018,23]heptacosa-3,5,7(27),10,12,14(26),18,20,22-nonaene-2,8,8-trione], the “Ent. B Max Activity (%)” value in test [1] was “+ (+ is <30%)”. For `Cc1cccc(C)c1-c1cc2nc(n1)NS(=O)(=O)c1cccc(c1)C(=O)N1Cc3cc(C(C)(C)C)ccc3C(CO2)C1C` (single isomer, unassigned) [Compound 219, 21-tert-butyl-12-(2,6-dimethylphenyl)-25-methyl-15-oxa-8λ^6-thia-1,9,11,26-tetraazapentacyclo[15.7.1.13,7.110,14.018,23]heptacosa-3,5,7(27),10,12,14(26),18,20,22-nonaene-2,8,8-trione], in test [1], the “Ent. B Max Activity (%)” value is “+++ (+++ is >600%)” and the EC50 is less than 1000 nM.

In the case of `Cc1cccc(C)c1-c1cc2nc(n1)NS(=O)(=O)c1cccc(c1)C(=O)N1CCc3cc(C(C)(C)C)ccc3[C@H]1CO2` (single isomer, unassigned) [Compound 236, 8-tert-Butyl-17-(2,6-dimethylphenyl)-14-oxa-21λ^6-thia-3,18,20,27-tetraazapentacyclo[20.3.1.115,19.03,12.06,11]heptacosa-1(26),6(11),7,9,15(27),16,18,22,24-nonaene-2,21,21-trione], in test [1], the “Ent. B Max Activity (%)” value is “+++ (+++ is >600%)” and the EC50 was less than 1000 nM.

Take `Cc1cccc(C)c1-c1cc2nc(n1)NS(=O)(=O)c1cccc(c1)C(=O)N1CCN[C@H](CC(C)C)[C@H](C1)O2` [Compound 118, (16S,17R)-12-(2,6-Dimethylphenyl)-17-(2-methylpropyl)-15-oxa-8λ^6-thia-1,9,11,18,22-pentaazatetracyclo[14.4.1.13,7.110,14]tricosa-3(23),4,6,10(22),11,13-hexaene-2,8,8-trione]: in test [1], the “Ent. B Max Activity (%)” value was “+++ (+++ is >600%)” and the EC50 is less than 1000 nM. For `Cc1cccc(C)c1-c1cc2nc(n1)NS(=O)(=O)c1cccc(c1)C(=O)N1CCN(C3CC4(CCCC4)C3)[C@H](CC(C)C)[C@H](C1)O2` [Compound 119, (16S,17R)-12-(2,6-dimethylphenyl)-17-(2-methylpropyl)-18-{spiro[3.4]octan-2-yl}-15-oxa-8λ^6-thia-1,9,11,18,22-pentaazatetracyclo[14.4.1.13,7.110,14]tricosa-3(23),4,6,10(22),11,13-hexaene-2,8,8-trione], in that order: “+++ (+++ is >600%)” and less than 1000 nM. As to `Cc1cccc(C)c1-c1cc2nc(n1)NS(=O)(=O)c1cccc(c1)C(=O)N1CCN(C3CC4(CCCCC4)C3)[C@H](CC(C)C)[C@H](C1)O2` [Compound 120, (16S,17R)-12-(2,6-dimethylphenyl)-17-(2-methylpropyl)-18-{spiro[3.5]nonan-2-yl}-15-oxa-8λ^6-thia-1,9,11,18,22-pentaazatetracyclo[14.4.1.13,7.110,14]tricosa-3(23),4,6,10(22),11,13-hexaene-2,8,8-trione], in test [1], the “Ent. B Max Activity (%)” value is “+++ (+++ is >600%)” and the EC50 is less than 1000 nM. Regarding `Cc1cccc(C)c1-c1cc2nc(n1)NS(=O)(=O)c1cccc(c1)C(=O)N1CCN(C)[C@H](CC(C)C)[C@H](C1)O2` [Compound 121, (16S,17R)-12-(2,6-Dimethylphenyl)-18-methyl-17-(2-methylpropyl)-15-oxa-8λ^6-thia-1,9,11,18,22-pentaazatetracyclo[14.4.1.13,7.110,14]tricosa-3(23),4,6,10(22),11,13-hexaene-2,8,8-trione], in test [1], the “Ent. B Max Activity (%)” value is recorded as “+++ (+++ is >600%)” and the EC50 is less than 1000 nM. For `Cc1cccc(C)c1-c1cc2nc(n1)NS(=O)(=O)c1cccc(c1)C(=O)N1CCN(C(=O)CC(C)(C)C)[C@H](CC(C)C)[C@H](C1)O2` [Compound 122, (16S,17R)-18-(3,3-Dimethylbutanoyl)-12-(2,6-dimethylphenyl)-17-(2-methylpropyl)-15-oxa-8λ^6-thia-1,9,11,18,22-pentaazatetracyclo[14.4.1.13,7.110,14]tricosa-3(23),4,6,10(22),11,13-hexaene-2,8,8-trione], in that order: “+++ (+++ is >600%)” and less than 1000 nM.

For the compound `Cc1cccc(C)c1-c1cc2nc(n1)NS(=O)(=O)c1cccc(c1)C(=O)N1CCc3cc(C(C)(C)C)ccc3[C@@H](O2)[C@H]1CC(C)C` [Compound 329], in test [1], the “Ent. B Max Activity (%)” value is recorded as “+++ (+++ is >600%)” and the EC50 was less than 1000 nM. With `Cc1cccc(C)c1-c1cc2nc(n1)NS(=O)(=O)c1cccc(c1)C(=O)N1CCCCC(C1)O2` (stereo not drawn) [Compound 369], the “Ent. A Max Activity (%)” value in test [2] (setting [3]) is recorded as “+ (+ is <300%)”.

In the case of `Cc1cccc(C)c1-c1cc2nc(n1)NS(=O)(=O)c1cccc(c1)C(=O)N1CCC3(CC3)C(C1)O2` (stereo not drawn) [Compound 370], the EC50 in test [2] (enteroid cells incubated with test compound 18-24 hours, acute 10 μM forskolin and 300 nM N-[2,4-bis(1,1-dimethylethyl)-5-hydroxyphenyl]-1,4-dihydro-4-oxoquinoline-3-carboxamide) is less than 1000 nM. In test [2] (setting [3]), the “Ent. A Max Activity (%)” value is on record as “+++ (+++ is >60%)”.
